Data on five compounds can be found in patent publication US10662194B2, “Substituted 6-anilino-9-heterocyclylpurine derivatives for inhibition of plant stress” (UNIVERZITA PALACKEHO V OLOMOUCI, priority 2014, dated 2020).

Where two headings read alike, the source gives them in different places.

In test [1] the target is T1, recombinant AtCKX2 (Arabidopsis thaliana, UniProt Q9FUJ3).
T1 construct: made in house; host or cells: S. cerevisiae strain 23344c ura-
T1 sequence (Q9FUJ3 23-501): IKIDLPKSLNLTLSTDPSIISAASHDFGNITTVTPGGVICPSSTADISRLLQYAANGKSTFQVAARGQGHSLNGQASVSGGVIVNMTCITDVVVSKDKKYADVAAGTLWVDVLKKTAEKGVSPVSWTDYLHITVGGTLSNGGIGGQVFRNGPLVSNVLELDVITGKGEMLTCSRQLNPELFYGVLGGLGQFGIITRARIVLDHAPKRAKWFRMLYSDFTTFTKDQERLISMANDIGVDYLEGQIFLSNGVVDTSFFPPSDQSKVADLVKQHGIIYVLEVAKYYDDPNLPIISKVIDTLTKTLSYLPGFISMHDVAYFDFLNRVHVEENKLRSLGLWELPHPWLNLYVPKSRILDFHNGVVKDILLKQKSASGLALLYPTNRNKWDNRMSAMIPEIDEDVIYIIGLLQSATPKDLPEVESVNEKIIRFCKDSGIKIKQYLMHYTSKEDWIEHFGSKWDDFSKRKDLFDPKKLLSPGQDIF
The test is described as follows: Inhibition of cytokinin oxidase/dehydrogenase activity (PMS/MTT microtitre assay). The class given is biochemical. How it is done: IC50 measurements were done using the assay in microtitre plate. Each well contained 100 μL of PMS/MTT [phenazine methosulfate/3-(4,5-dimethylthiazol-2-yl)-2,5-diphenyltetrazolium bromide] reaction mixture (final concentrations: 0.1 M KH2PO4, pH 7.4, 1 mM MTT, 0.2 mM PMS) containing the tested compound (3×10^−7 M-3×10^−4 M) and 30 μM N^6-isopentenyladenine (iP) as a substrate. 100 μL of cell-free growth medium of S. cerevisiae strain 23344c ura^− harboring the plasmid pYES2-AtCKX2 was directly used as a source of AtCKX2. Plates were incubated in the dark for 30 min at 37° C. and the enzymatic reaction was stopped by 25 μL of 35% acetic acid. The absorbance at 578 nm was measured using spectrophotometer Tecan. Absorbance of the sample without iP was subtracted.
The IC50 value, the compound concentration that inhibits the enzyme activity to 50%, was calculated from the obtained dose response curves. The values shown in Table 7 are means of three replicates and the entire test was repeated at least twice. […] Compound 12 is an effective inhibitor of AtCKX2 activity, app. 3-times stronger that thidiazuron and only app. 3-times weaker than the structurally related compound INCYDE (2-chloro-6-(3-methoxyanilino)purine).
In general terms: Tetrazolium assays rely on reduction of a dye to a coloured formazan, in cell work by metabolically active cells.

Test [2] relates to wild-type Arabidopsis plants. Nature of the test: In vitro root growth of wild-type Arabidopsis plants. The test is classed as in vivo. The settings on record: 0.1 μM in MS medium, FIG. 6. How it is done:
As shown in previous example presence of compound 12 in the growth medium has positive effect on the root growth of cytokinin-deficient Arabidopsis plants. This effect was further studied using wild-type Arabidopsis plants and compared with biologically and structurally relevant compounds, a cytokinin BAP and a CKX inhibitor INCYDE. […] Arabidopsis seedlings were grown in vitro on a standard MS medium containing 0.1 μM cytokinin BAP, the same concentration of compound 12 and the same concentration of CKX inhibitor INCYDE (2-chloro-6-(3-methoxyanilino)purine).

Test [3] concerns CKX1 overproducing (35S:CKX1) Arabidopsis seedlings. Nature of the test: In vitro shoot and root growth of cytokinin deficient Arabidopsis plants. The class given is in vivo. The following applies: for complementation of wild type shoot phenotype: 0.1 μM in MS medium, FIG. 3, 4. From the text: Constitutive overexpression of CKX in 35S:CKX1 plants leads to enhanced root growth. If CKX inhibitor can restore WT phenotype, it is expected that inhibition of the CKX activity in 35S:AtCKX1 plants should thus have no effect or inhibit their root growth. Such observation was done in case of INCYDE, but not compound 12.

Test [4] concerns ARR5:GUS reporter gene. The test is described as follows: Induction of cytokinin reporter ARR5:GUS in transgenic Arabidopsis plants. The class given is in vivo. The settings on record: 0.01-10 μM, 17 h, FIG. 2. How it is done: Cytokinins induce in Arabidopsis transcription of gene ARR5, a member of A-type response regulator family classified as cytokinin primary response genes being expressed down-stream of sensing by cytokinin receptors. We cultivated transgenic Arabidopsis plants harbouring PARR5::GUS reporter (D'Agostino et al. Plant Physiol. 124: 1706-1717, 2000) in MS medium containing cytokinin BAP, CKX inhibitor INCYDE and novel compounds 12 and 91 in concentrations 0.01, 0.1, 1, 5, 10 μM; DMSO (0.1%) was tested as solvent control. Seeds were surface-sterilized in 70% ethanol and then placed into wells of 6-well microtiter plate (TPP, Switzerland) containing 3 mL of MS medium in each well. After sowing plates were pretreated in dark at 4° C. to synchronize the germination of the seeds. […] Quantitative estimation of the level of ARR5:GUS gene induction was done according to method published by Romanov et al. (Romanov et al. FEBS Letters 515: 39-43, 2002). After extraction of proteins the GUS activity was determined using incubation with fluorogenic substrate MUG (4-methylumbelliferyl glucuronid; 1 h, 37° C.) and then fluorescence 365 nm and 460 nm (excitation and emission wavelengths) was recorded, as described in detail by Spíchal et al. (Spíchal et al. Plant and Cell Physiology 45: 1299-1305, 2004).

In test [5] the target is T2, CRE1/AHK4 (Arabidopsis thaliana, UniProt Q9C5U0).
T2 construct: expressed in transfected cells; host or cells: Escherichia coli strain KMI001
The test is described as follows: Escherichia coli cytokinin receptor activation assay (CRE1/AHK4). The test is classed as cell-based. The following applies: 10^−7 M-5×10^−5 M, compared to trans-zeatin, FIG. 1. How it is done:
(§1) Escherichia coli strains KMI001 harbouring the plasmid pIN-III-AHK4 or pSTV28-AHK3 were grown overnight at 25° C. in M9 media enriched with 0.1% casamino acids to OD600˜1. The preculture was diluted 1:600 in 1 ml M9 medium containing 0.1% casamino acids and 1 μL stock solution of either the tested compound (10^−7 M-5×10^−5 M) or solvent control (DMSO, ethanol, methanol) were added. The cultures were further grown at 25° C. in microtiter plate, 200 μL per well. […] The cultures were centrifuged and 50 μL aliquots of the supernatant were transferred to microtiter plate containing 2 μL 50 mM 4-methyl umbelliferyl galactoside which was subsequently incubated for 1 h at 37° C. The reaction was stopped by adding 100 μL 0.2 M Na2CO3. Fluorescence was measured using a Fluoroscan Ascent (Labsystems, Finland) at the excitation and emission wavelengths of 365 and 460 nm, respectively. The OD600 of remaining culture was determined and β-galactosidase activity was calculated as nmol 4-methylumbelliferone×OD600^−1×h^−1.

Test [6] addresses T3, AHK3 (Arabidopsis thaliana, UniProt Q9C5U1).
T3 construct: expressed in transfected cells; host or cells: Escherichia coli strain KMI001
T3 sequence (Q9C5U1 1-1036): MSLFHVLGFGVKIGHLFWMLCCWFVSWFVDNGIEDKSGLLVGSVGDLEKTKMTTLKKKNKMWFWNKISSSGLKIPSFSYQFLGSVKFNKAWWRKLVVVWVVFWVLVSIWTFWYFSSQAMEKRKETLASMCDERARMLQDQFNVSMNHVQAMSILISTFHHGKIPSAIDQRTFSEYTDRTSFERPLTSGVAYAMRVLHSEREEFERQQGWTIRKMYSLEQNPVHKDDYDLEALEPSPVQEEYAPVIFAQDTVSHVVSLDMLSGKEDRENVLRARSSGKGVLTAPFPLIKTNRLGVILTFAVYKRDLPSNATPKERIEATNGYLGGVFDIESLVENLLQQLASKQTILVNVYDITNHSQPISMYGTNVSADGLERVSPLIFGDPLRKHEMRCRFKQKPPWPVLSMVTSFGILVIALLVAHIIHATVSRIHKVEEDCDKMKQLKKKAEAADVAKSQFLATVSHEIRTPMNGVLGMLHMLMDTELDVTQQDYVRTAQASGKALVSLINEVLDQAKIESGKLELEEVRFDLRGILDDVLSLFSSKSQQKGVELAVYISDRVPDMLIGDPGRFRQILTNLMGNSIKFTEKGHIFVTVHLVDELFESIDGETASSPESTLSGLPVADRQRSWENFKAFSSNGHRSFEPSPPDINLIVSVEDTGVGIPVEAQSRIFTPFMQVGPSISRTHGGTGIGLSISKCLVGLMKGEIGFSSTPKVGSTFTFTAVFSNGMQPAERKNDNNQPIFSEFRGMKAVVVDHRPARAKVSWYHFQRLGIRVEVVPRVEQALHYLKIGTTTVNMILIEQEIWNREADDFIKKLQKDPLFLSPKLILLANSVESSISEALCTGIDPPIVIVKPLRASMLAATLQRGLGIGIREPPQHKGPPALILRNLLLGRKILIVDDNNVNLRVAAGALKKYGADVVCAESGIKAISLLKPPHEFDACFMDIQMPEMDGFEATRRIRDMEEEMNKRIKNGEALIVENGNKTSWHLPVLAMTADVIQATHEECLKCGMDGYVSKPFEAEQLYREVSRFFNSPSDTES
The test is described as follows: Escherichia coli cytokinin receptor activation assay (AHK3). The class given is cell-based. The following applies: 10^−7 M-5×10^−5 M, compared to trans-zeatin, FIG. 1. How it is done:
as §1

Where [7] appears, read: 30 μM iP substrate, 30 min, 37° C., read-out: IC50.

T2 sequence (Q9C5U0 whole entry): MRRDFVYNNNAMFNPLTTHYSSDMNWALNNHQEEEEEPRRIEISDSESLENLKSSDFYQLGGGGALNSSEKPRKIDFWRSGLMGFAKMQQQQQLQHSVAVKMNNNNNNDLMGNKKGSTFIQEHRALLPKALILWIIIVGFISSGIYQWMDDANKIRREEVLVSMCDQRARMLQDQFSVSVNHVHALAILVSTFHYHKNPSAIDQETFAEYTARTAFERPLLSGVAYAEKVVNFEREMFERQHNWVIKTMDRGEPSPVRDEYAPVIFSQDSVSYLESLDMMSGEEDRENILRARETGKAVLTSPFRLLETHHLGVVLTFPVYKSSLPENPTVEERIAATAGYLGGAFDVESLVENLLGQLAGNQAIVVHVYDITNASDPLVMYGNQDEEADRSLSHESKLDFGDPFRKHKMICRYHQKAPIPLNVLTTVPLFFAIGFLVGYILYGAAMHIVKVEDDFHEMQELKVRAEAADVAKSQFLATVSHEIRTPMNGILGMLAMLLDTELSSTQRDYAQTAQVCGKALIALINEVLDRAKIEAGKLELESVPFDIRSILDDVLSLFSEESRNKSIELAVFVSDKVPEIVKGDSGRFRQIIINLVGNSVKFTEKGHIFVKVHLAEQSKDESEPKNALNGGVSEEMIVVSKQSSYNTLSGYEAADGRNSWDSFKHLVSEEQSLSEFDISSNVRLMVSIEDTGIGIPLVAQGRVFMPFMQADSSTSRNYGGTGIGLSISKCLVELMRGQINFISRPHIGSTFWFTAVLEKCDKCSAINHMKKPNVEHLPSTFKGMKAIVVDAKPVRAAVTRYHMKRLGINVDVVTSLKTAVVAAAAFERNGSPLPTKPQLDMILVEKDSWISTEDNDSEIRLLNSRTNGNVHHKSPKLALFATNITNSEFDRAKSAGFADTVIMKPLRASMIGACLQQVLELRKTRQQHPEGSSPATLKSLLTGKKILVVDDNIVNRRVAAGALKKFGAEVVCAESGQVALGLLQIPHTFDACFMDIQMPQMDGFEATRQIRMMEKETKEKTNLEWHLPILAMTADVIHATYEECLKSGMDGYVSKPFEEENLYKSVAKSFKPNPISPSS

With `O=C(Nc1ccccc1)Nc1cnns1` [thidiazuron, reference compound], in test [1], the IC50 (usually the point on the concentration scale where inhibition reaches its midpoint) stood at 55 µM.
On to `COc1cccc(Nc2nc(F)nc3[nH]cnc23)c1` [INCYDE-F, 2-fluoro-6-(3-methoxyanilino)purine, reference compound], for which, in test [1] (setting [7]), the IC50 worked out at 5.2 µM.
Consider `c1ccc(CNc2ncnc3nc[nH]c23)cc1` [BAP, 6-benzylaminopurine], for which the root growth result in test [2] is “inhibited root growth”. Further, the “complementation of wild type shoot phenotype” value in test [3] is “cannot be reached”.
`COc1cccc(Nc2nc(Cl)nc3nc[nH]c23)c1` [INCYDE, 2-chloro-6-(3-methoxyanilino)purine]: in test [2], the root growth result was “inhibited root growth”. The “complementation of wild type shoot phenotype” value in test [3] is reported as “led to restauration of wild type shoot phenotype”. Moreover, the “root biomass of 35S:CKX1 plants” value in test [3] (tested concentration range, FIG. 5) is “did not influence the root biomass”. Also, in test [1] (setting [7]), the IC50 came out at 6.7 µM.
With `COc1cccc(Nc2nc(F)nc3c2ncn3C2CCCCO2)c1` (stereo not drawn) [compound 91, 2-fluoro-6-(3-methoxyanilino)-9-(tetrahydropyran-2-yl)purine], the “induction of ARR5:GUS expression” value in test [4] is recorded as “dose-dependent induction of ARR5:GUS expression”. Also, the “ability to activate cytokinin receptor CRE1/AHK4” value in test [5] is recorded as “do not activate any of the receptors”. In test [6], the “ability to activate cytokinin receptor AHK3” value is recorded as “do not activate any of the receptors”. In test [1] (setting [7]), the IC50 stood at 380 µM.
